Results from PubChem BioAssay AID2060897 (Molecular Pharmacology Branch, DTP, NCI, 2025).
pIC50: −log10 of the molar value.

System: 966289-007-R4-J1-PDC complex spheroid viability
Assay: Anticancer human tumor 966289-007-R4-J1-PDC patient-derived pancreatic adenocarcinoma cell line growth inhibition [RAS]
Conditions: for viability, T/C: stronger effect = lower value
Text: RAS pathway inhibitors in Combinations in Complex Spheroids
A high-throughput screen of multi-cell type tumor spheroids was designed to identify active combinations of RAS pathway inhibitors and targeted small molecules. Complex spheroids include a stromal component modeled by human endothelial cells (HUVEC) and fibroblasts modeled by human mesenchymal stem cells (MSCs). The concentration ranges selected for each drug and investigational agent were based upon clinically achievable concentrations if the clinical Cmax of the agent was known.
Compounds. The drugs and investigational agents: abemaciclib (NSC768073), cobimetinib (NSC768068), divarasib (GDC6063, NSC841802), docetaxel (NSC628503), GDC-1971 (RLY-1971, NSC841576), gemcitabine (NSC613327), inavolisib (NSC800729), ipatasertib (NSC767898), KB-0742 (NSC834161), MRTX-1133 (NSC836407), osimertinib (NSC779217), RMC-4630 (NSC839698), RMC-6236 (NSC851965), RMC-6291 (NSC852671), Ro-3306 (NSC812927), sapanisertib (NSC764658), SN-38 (NSC673596), staurosporine (NSC755774), SY5609 (NSC837396), and tovorafenib (DAY101, NSC766906), were obtained from the National Cancer Institute (NCI) Developmental Therapeutics Program Chemical Repository. The FDA-approved anticancer drug set is available from the NCI Developmental Therapeutics Program. […] The stock solutions were prepared in dimethyl sulfoxide (DMSO, Sigma-Aldrich, St. Louis, MO, cat. D2650) at 800-fold the tested concentration and stored at -70 degrees C prior to their use. All drugs and investigational agents were tested over a range starting from a high concentration at or near the clinical Cmax and decreasing in half-log increments. If the clinical Cmax for an agent had not been determined, the highest concentration tested was 10 microM.
Cell Culture. All cells were maintained in an incubator at 37 degrees C and 5% CO2 with 95% humidity. The PDC lines were cultured according to standard operating procedures established by the NCI PDMR. All PDCs were thawed and cultured in Matrigel-coated flasks prepared with a working solution of 1X Ham's F-12 nutrient mix, without supplementation (Invitrogen, Waltham, MA, cat. 11765054), 100 U/mL penicillin-streptomycin (Invitrogen, cat. 15140122), and 2.5% Matrigel (Corning Inc., Corning, NY, cat. 354248) for the first three passages. The 362531-283-R-J2-PDC and 782815-120-R-J1-PDC lines were cultured in 6C/Colon 1B media, which includes advanced DMEM/F-12 (Thermo Fisher Scientific, cat. 12634028), 10 mM HEPES (Thermo Fisher Scientific, cat. 15630080), 1X GlutaMAX supplement (Thermo Fisher Scientific, cat. 35050061), 0.1 mg/mL primocin (InvivoGen, San Diego, CA, cat. ant-pm-2), 10% defined fetal bovine serum, heat inactivated (HyClone Laboratories Inc., Logan, UT, cat. SH30070.03HI), 50% L-WRN conditioned media (ATCC, cat. CRL-3276), 1.25 mM N-Acetyl-L-cysteine (Sigma-Aldrich, cat. A9165), 10 mM nicotinamide (Sigma-Aldrich, cat. N0636), 1X B-27 supplement (Thermo Fisher Scientific, cat. 17504044), 1X N-2 supplement (Thermo Fisher Scientific, cat. 17502048), 50 ng/mL human EGF (Thermo Fisher Scientific, cat. PHG0311), and 10 microM Y-27632 dihydrochloride (Tocris Bioscience, cat. 1254). The K12877-001-R-J1-PDC line was cultured in 6I media, which includes all 6C/Colon 1B media plus 10 ng/mL human FGF-10 (PeproTech, cat. 100-26), 1 ng/mL human FGF-2 (PeproTech, cat. 100-18B), 1 µM prostaglandin E2 (Tocris Bioscience, cat. 2296), […] hydrocortisone (Sigma-Aldrich, cat. H4001), and […] bovine insulin (Sigma-Aldrich, cat. I6634). The K86415-001-R-J1-PDC line was cultured in 6D media, which includes all 6C/Colon 1B media components minus the L-WRN conditioned media. The 485176-168-R4-J1-PDC was cultured in PANC media, which includes all 6C/Colon 1B media plus 100 ng/mL human FGF-10 (PeproTech, cat. 100-26), 500 nM SB-431542 (Selleckchem, cat. S1067), and 10 nM gastrin (Tocris Bioscience, cat. 3006). […]

[1] = curve of first compound, second compound 0.000949 µM
[2] = curve of first compound, second compound 0.003 µM
[3] = curve of first compound, second compound 0.00949 µM
[4] = curve of first compound, second compound 0.03 µM
[5] = curve of first compound, second compound 0.0949 µM
[6] = curve of first compound, second compound 0.3 µM
[7] = second compound 0.000949 µM, first compound 0.0316 µM
[8] = second compound 0.000949 µM, first compound 0.1 µM
[9] = second compound 0.000949 µM, first compound 0.316 µM
[10] = second compound 0.000949 µM, first compound 1 µM
[11] = second compound 0.000949 µM, first compound 3.16 µM
[12] = second compound 0.000949 µM, first compound 10 µM
[13] = second compound 0.003 µM, first compound 0.0316 µM
[14] = second compound 0.003 µM, first compound 0.1 µM
[15] = second compound 0.003 µM, first compound 0.316 µM
[16] = second compound 0.003 µM, first compound 1 µM
[17] = second compound 0.003 µM, first compound 3.16 µM
[18] = second compound 0.003 µM, first compound 10 µM
[19] = second compound 0.00949 µM, first compound 0.0316 µM
[20] = second compound 0.00949 µM, first compound 0.1 µM
[21] = second compound 0.00949 µM, first compound 0.316 µM
[22] = second compound 0.00949 µM, first compound 1 µM
[23] = second compound 0.00949 µM, first compound 3.16 µM
[24] = second compound 0.00949 µM, first compound 10 µM
[25] = second compound 0.03 µM, first compound 0.0316 µM
[26] = second compound 0.03 µM, first compound 0.1 µM
[27] = second compound 0.03 µM, first compound 0.316 µM
[28] = second compound 0.03 µM, first compound 1 µM
[29] = second compound 0.03 µM, first compound 3.16 µM
[30] = second compound 0.03 µM, first compound 10 µM
[31] = second compound 0.0949 µM, first compound 0.0316 µM
[32] = second compound 0.0949 µM, first compound 0.1 µM
[33] = second compound 0.0949 µM, first compound 0.316 µM
[34] = second compound 0.0949 µM, first compound 1 µM
[35] = second compound 0.0949 µM, first compound 3.16 µM
[36] = second compound 0.0949 µM, first compound 10 µM
[37] = second compound 0.3 µM, first compound 0.0316 µM
[38] = second compound 0.3 µM, first compound 0.1 µM
[39] = second compound 0.3 µM, first compound 0.316 µM
[40] = second compound 0.3 µM, first compound 1 µM
[41] = second compound 0.3 µM, first compound 3.16 µM
[42] = second compound 0.3 µM, first compound 10 µM
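Note: spheroids exposed to agents for one week before readout.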
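Throughout, for viability, T/C: percent viability relative to DMSO vehicle control wells as 100%.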

SMILES: NC1c2ccccc2OC12CCN(c1cnc3c(N4CCCc5ncccc54)n[nH]c3n1)CC2 (stereo unspecified) + CCn1c(-c2cc(N3CCN(C)CC3)cnc2C(C)OC)c2c3cc(ccc31)-c1csc(n1)CC(NC(=O)C1CC1C)C(=O)N1CCCC(N1)C(=O)OCC(C)(C)C2
- pIC50 [1]: < 5.00
- pIC50 [2]: < 5.00
- pIC50 [3]: < 5.00
- pIC50 [4]: < 5.00
- pIC50 [5]: < 5.00
- pIC50 [6]: < 5.00
- viability, T/C [7]: 88.7%
- viability, T/C [8]: 84%
- viability, T/C [9]: 117%
- viability, T/C [10]: 104%
- viability, T/C [11]: 123%
- viability, T/C [12]: 85%
- viability, T/C [13]: 121%
- viability, T/C [14]: 93%
- viability, T/C [15]: 88.9%
- viability, T/C [16]: 95.2%
- viability, T/C [17]: 105%
- viability, T/C [18]: 109%
- viability, T/C [19]: 106%
- viability, T/C [20]: 103%
- viability, T/C [21]: 88.5%
- viability, T/C [22]: 111%
- viability, T/C [23]: 97.1%
- viability, T/C [24]: 89.9%
- viability, T/C [25]: 78.9%
- viability, T/C [26]: 88.8%
- viability, T/C [27]: 103%
- viability, T/C [28]: 105%
- viability, T/C [29]: 119%
- viability, T/C [30]: 69.7%
- viability, T/C [31]: 103%
- viability, T/C [32]: 122%
- viability, T/C [33]: 105%
- viability, T/C [34]: 117%
- viability, T/C [35]: 92.8%
- viability, T/C [36]: 88.4%
- viability, T/C [37]: 103%
- viability, T/C [38]: 88.1%
- viability, T/C [39]: 96.8%
- viability, T/C [40]: 97.3%
- viability, T/C [41]: 91.2%
- viability, T/C [42]: 137%

SMILES: CC(=O)OC12COC1CC(O)C1(C)C(=O)C(O)C3=C(C)C(OC(=O)C(O)C(NC(=O)OC(C)(C)C)c4ccccc4)CC(O)(C(OC(=O)c4ccccc4)C21)C3(C)C (stereo unspecified)
- viability, T/C (compound 0.0316 µM): 7.82% [middle of 4 runs]
- viability, T/C (compound 0.1 µM): 14.1% [middle of 4 runs]
- viability, T/C (compound 0.316 µM): 15.4% [middle of 4 runs]
- viability, T/C (compound 1 µM): 19.7% [middle of 4 runs]
- viability, T/C (compound 3.16 µM): 38.3% [middle of 4 runs]
- viability, T/C (compound 10 µM): 67% [middle of 4 runs]
- pIC50 (curve of compound): > 7.50

SMILES: CCC(CC)c1cc(NC2CCC(N)C2)n2nccc2n1 (stereo unspecified) + CCn1c(-c2cccnc2C(C)OC)c2c3cc(ccc31)N1CCOC(CC(NC(=O)C(C(C)C)N(C)C(=O)C3(F)CCN(C(=O)C#CC(C)(C)N(C)C)CC3)C(=O)N3CCCC(N3)C(=O)OCC(C)(C)C2)C1
- pIC50 [1]: 5.82
- pIC50 [2]: 5.85
- pIC50 [3]: 5.83
- pIC50 [4]: 5.97
- pIC50 [5]: 6.12
- pIC50 [6]: 6.23
- viability, T/C [7]: 113%
- viability, T/C [8]: 87%
- viability, T/C [9]: 115%
- viability, T/C [10]: 76.3%
- viability, T/C [11]: 1.1%
- viability, T/C [12]: 1.22%
- viability, T/C [13]: 99.7%
- viability, T/C [14]: 82.4%
- viability, T/C [15]: 66.7%
- viability, T/C [16]: 71.3%
- viability, T/C [17]: 1.2%
- viability, T/C [18]: 0.93%
- viability, T/C [19]: 82.1%
- viability, T/C [20]: 122%
- viability, T/C [21]: 96.5%
- viability, T/C [22]: 75.1%
- viability, T/C [23]: 1.25%
- viability, T/C [24]: 1.32%
- viability, T/C [25]: 66.9%
- viability, T/C [26]: 72.1%
- viability, T/C [27]: 123%
- viability, T/C [28]: 52.9%
- viability, T/C [29]: 1.48%
- viability, T/C [30]: 1.83%
- viability, T/C [31]: 64%
- viability, T/C [32]: 106%
- viability, T/C [33]: 132%
- viability, T/C [34]: 34.6%
- viability, T/C [35]: 0.98%
- viability, T/C [36]: 0.98%
- viability, T/C [37]: 93.5%
- viability, T/C [38]: 94.5%
- viability, T/C [39]: 98.5%
- viability, T/C [40]: 12.7%
- viability, T/C [41]: 1.23%
- viability, T/C [42]: 1.13%
